Reference: patent publication US8658604B2, “Template-fixed beta-hairpin peptidomimetics with protease inhibitory activity” (Polyphor Ltd, priority 2005, dated 2014)
Where a SMILES comes first, the peptide text is derived from it.

What follows are compounds tested against T1, Elastase from human neutrophils (Homo sapiens, UniProt P08246) (assay: Enzymatic assay, elastase). Conditions: Elastase IC50.
T1 sequence (P08246 30-267): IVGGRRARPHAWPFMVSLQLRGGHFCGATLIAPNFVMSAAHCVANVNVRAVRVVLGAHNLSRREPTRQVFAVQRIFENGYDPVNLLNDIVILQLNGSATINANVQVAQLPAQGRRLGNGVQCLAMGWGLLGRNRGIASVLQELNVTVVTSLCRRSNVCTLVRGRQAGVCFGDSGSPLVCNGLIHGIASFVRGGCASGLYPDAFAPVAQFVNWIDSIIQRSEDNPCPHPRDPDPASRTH

First: CCCCCCCC[C@@H]1NC(=O)[C@@H]2CCCN2C(=O)[C@H]2CCCN2C(=O)[C@H](CCC(N)=O)NC(=O)[C@@H]2CSSC[C@H](NC1=O)C(=O)N[C@@H]([C@@H](C)O)C(=O)N[C@@H](C)C(=O)N[C@@H](CO)C(=O)N[C@@H]([C@@H](C)CC)C(=O)N1CCC[C@H]1C(=O)N1CCC[C@H]1C(=O)N[C@@H](CCC(N)=O)C(=O)N2 [Ex. 149] (HELM PEPTIDE1{[CCCCCCCC[C@H](N[*:1])C(=O)[*:2]].C.T.A.S.I.P.P.Q.C.Q.[dP].P}$PEPTIDE1,PEPTIDE1,2:R3-10:R3|PEPTIDE1,PEPTIDE1,1:R1-13:R2$$$V2.0)
Second: CCCC[C@@H]1NC(=O)[C@@H]2CCCN2C(=O)[C@H]2CCCN2C(=O)[C@H](CCCC)NC(=O)[C@@H]2CSSC[C@H](NC1=O)C(=O)N[C@@H]([C@@H](C)O)C(=O)N[C@@H](C)C(=O)N[C@@H](CO)C(=O)N[C@@H]([C@@H](C)CC)C(=O)N1CCC[C@H]1C(=O)N1CCC[C@H]1C(=O)N[C@@H](CCC(N)=O)C(=O)N2 [Ex. 94] (HELM PEPTIDE1{[Nle].C.T.A.S.I.P.P.Q.C.[Nle].[dP].P}$PEPTIDE1,PEPTIDE1,2:R3-10:R3|PEPTIDE1,PEPTIDE1,1:R1-13:R2$$$V2.0)
The IC50 of the first is 4.5-fold lower: 11 nM for the first, 50 nM for the second.

First: CCCC[C@@H]1NC(=O)[C@H](CCC(N)=O)NC(=O)[C@H]2CCCN2C(=O)[C@H](CCC(N)=O)NC(=O)[C@@H]2CSSC[C@H](NC1=O)C(=O)N[C@@H]([C@@H](C)O)C(=O)N[C@@H](C)C(=O)N[C@@H](CO)C(=O)N[C@@H](CC1CCCCC1)C(=O)N1CCC[C@H]1C(=O)N1CCC[C@H]1C(=O)N[C@@H](CCC(N)=O)C(=O)N2 [compound 164] (HELM PEPTIDE1{[Nle].C.T.A.S.[Cha].P.P.Q.C.Q.[dP].Q}$PEPTIDE1,PEPTIDE1,2:R3-10:R3|PEPTIDE1,PEPTIDE1,1:R1-13:R2$$$V2.0)
Second: CCCC[C@@H]1NC(=O)[C@H](CCC(N)=O)NC(=O)[C@@H](CCC(N)=O)NC(=O)[C@H](CC2CCCCC2)NC(=O)[C@@H]2CSSC[C@H](NC1=O)C(=O)N[C@@H]([C@@H](C)O)C(=O)N[C@@H](C)C(=O)N[C@@H](CO)C(=O)N[C@@H](CC1CCCCC1)C(=O)N1CCC[C@H]1C(=O)N1CCC[C@H]1C(=O)N[C@@H](CCC(N)=O)C(=O)N2 [Ex. 171] (HELM PEPTIDE1{[Nle].C.T.A.S.[Cha].P.P.Q.C.[Cha].[dQ].Q}$PEPTIDE1,PEPTIDE1,2:R3-10:R3|PEPTIDE1,PEPTIDE1,1:R1-13:R2$$$V2.0)
The IC50 of the first is 1.8-fold higher: 24 nM for the first, 13 nM for the second.

`CCCC[C@@H]1NC(=O)[C@@H]2CCCN2C(=O)[C@H]2CCCN2C(=O)[C@H](Cc2ccc(O)cc2)NC(=O)[C@@H]2CSSC[C@H](NC1=O)C(=O)N[C@@H]([C@@H](C)O)C(=O)N[C@@H]([C@@H](C)O)C(=O)N[C@@H](CO)C(=O)N[C@@H]([C@@H](C)CC)C(=O)N1CCC[C@H]1C(=O)N1CCC[C@H]1C(=O)N[C@@H](Cc1ccc(O)cc1)C(=O)N2` [Ex. 77] (HELM PEPTIDE1{[Nle].C.T.T.S.I.P.P.Y.C.Y.[dP].P}$PEPTIDE1,PEPTIDE1,2:R3-10:R3|PEPTIDE1,PEPTIDE1,1:R1-13:R2$$$V2.0) and `CCCC[C@@H]1NC(=O)[C@@H]2CCCN2C(=O)[C@H]2CCCN2C(=O)[C@H](Cc2ccc(O)cc2)NC(=O)[C@@H]2CSSC[C@H](NC1=O)C(=O)N[C@@H]([C@@H](C)O)C(=O)N[C@@H](C)C(=O)N[C@@H](CO)C(=O)N[C@@H](CCCC)C(=O)N1CCC[C@H]1C(=O)N1CCC[C@H]1C(=O)N[C@@H](CCC(N)=O)C(=O)N2` [Ex. 79] (HELM PEPTIDE1{[Nle].C.T.A.S.[Nle].P.P.Q.C.Y.[dP].P}$PEPTIDE1,PEPTIDE1,2:R3-10:R3|PEPTIDE1,PEPTIDE1,1:R1-13:R2$$$V2.0) are within 1.5-fold of each other in IC50: 68 nM for the first, 66 nM for the second.

`CC[C@H](C)[C@@H]1NC(=O)[C@H](CO)NC(=O)[C@H](C)NC(=O)[C@H]([C@@H](C)O)NC(=O)[C@@H]2CSSC[C@H](NC(=O)[C@H](CCC(N)=O)NC(=O)[C@@H]3CCCN3C(=O)[C@@H]3CCCN3C1=O)C(=O)N[C@@H](Cc1ccc(O)cc1)C(=O)N1CCC[C@@H]1C(=O)N1CCC[C@H]1C(=O)N[C@@H](C1CCCCC1)C(=O)N2` [Ex. 101] (HELM PEPTIDE1{[O=C([C@@H](N[*:1])C1CCCCC1)[*:2]].C.T.A.S.I.P.P.Q.C.Y.[dP].P}$PEPTIDE1,PEPTIDE1,2:R3-10:R3|PEPTIDE1,PEPTIDE1,1:R1-13:R2$$$V2.0) gave an IC50 of 49 nM.

What follows are compounds tested against T2, CathepsinG, from human neutrophils (Homo sapiens, UniProt P08311) (assay: Enzymatic assay, cathepsin G). Conditions: Cathepsin G IC50.
T2 sequence (P08311 21-244): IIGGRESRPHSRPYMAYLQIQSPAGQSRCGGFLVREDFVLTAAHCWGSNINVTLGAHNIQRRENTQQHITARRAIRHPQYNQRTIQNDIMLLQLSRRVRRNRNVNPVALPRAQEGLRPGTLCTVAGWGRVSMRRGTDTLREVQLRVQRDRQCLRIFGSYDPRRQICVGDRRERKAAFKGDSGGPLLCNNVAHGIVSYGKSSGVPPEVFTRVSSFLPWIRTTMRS

`CC[C@H](C)[C@@H]1NC(=O)[C@@H]2CCCN2C(=O)[C@@H]2CCCN2C(=O)[C@H](CC(=O)O)NC(=O)[C@H](CO)NC(=O)[C@H](CCCCN)NC(=O)[C@H]([C@@H](C)O)NC(=O)[C@@H]2CSSC[C@H](NC1=O)C(=O)N[C@@H](CC(N)=O)C(=O)N1CCC[C@@H]1C(=O)N1CCC[C@H]1C(=O)N[C@@H](CCc1ccccc1)C(=O)N2` [Ex. 27] (HELM PEPTIDE1{[O=C([C@H](CCc1ccccc1)N[*:1])[*:2]].C.T.K.S.D.P.P.I.C.N.[dP].P}$PEPTIDE1,PEPTIDE1,2:R3-10:R3|PEPTIDE1,PEPTIDE1,1:R1-13:R2$$$V2.0) and `CC[C@H](C)[C@@H]1NC(=O)[C@@H]2CCCN2C(=O)[C@@H]2CCCN2C(=O)[C@H](CC(=O)O)NC(=O)[C@H](CO)NC(=O)[C@H](CCCCN)NC(=O)[C@H]([C@@H](C)O)NC(=O)[C@@H]2CSSC[C@H](NC1=O)C(=O)N[C@@H](CC(=O)O)C(=O)N1CCC[C@@H]1C(=O)N1CCC[C@H]1C(=O)N[C@@H](CCc1ccccc1)C(=O)N2` [Ex. 29] (HELM PEPTIDE1{[O=C([C@H](CCc1ccccc1)N[*:1])[*:2]].C.T.K.S.D.P.P.I.C.D.[dP].P}$PEPTIDE1,PEPTIDE1,2:R3-10:R3|PEPTIDE1,PEPTIDE1,1:R1-13:R2$$$V2.0) are within 1.5-fold of each other in IC50: 48 nM for the first, 42 nM for the second.

`C[C@@H](O)[C@@H]1NC(=O)[C@@H]2CSSC[C@H](NC(=O)[C@H](CC3CCCCC3)NC(=O)[C@@H]3CCCN3C(=O)[C@@H]3CCCN3C(=O)[C@H](CC(=O)O)NC(=O)[C@H](CO)NC(=O)[C@H](CCCCN)NC1=O)C(=O)N[C@@H](CCCNC(=N)N)C(=O)N1CCC[C@@H]1C(=O)N1CCC[C@H]1C(=O)N[C@@H](C1CCCCC1)C(=O)N2` [Ex. 71] (HELM PEPTIDE1{[O=C([C@@H](N[*:1])C1CCCCC1)[*:2]].C.T.K.S.D.P.P.[Cha].C.R.[dP].P}$PEPTIDE1,PEPTIDE1,2:R3-10:R3|PEPTIDE1,PEPTIDE1,1:R1-13:R2$$$V2.0) and `C[C@@H](O)[C@@H]1NC(=O)[C@@H]2CSSC[C@H](NC(=O)[C@H](CC3CCCCC3)NC(=O)[C@@H]3CCCN3C(=O)[C@@H]3CCCN3C(=O)[C@H](CC(=O)O)NC(=O)[C@H](CO)NC(=O)[C@H](CCCCN)NC1=O)C(=O)N[C@@H](Cc1ccc(O)cc1)C(=O)N1CCC[C@@H]1C(=O)N1CCC[C@H]1C(=O)N[C@@H](C1CCCCC1)C(=O)N2` [Ex. 66] (HELM PEPTIDE1{[O=C([C@@H](N[*:1])C1CCCCC1)[*:2]].C.T.K.S.D.P.P.[Cha].C.Y.[dP].P}$PEPTIDE1,PEPTIDE1,2:R3-10:R3|PEPTIDE1,PEPTIDE1,1:R1-13:R2$$$V2.0) are within 1.5-fold of each other in IC50: 70 nM for the first, 48 nM for the second.

`CCCC[C@@H]1NC(=O)[C@@H]2CCCN2C(=O)[C@H]2CCCN2C(=O)[C@H](CC(=O)O)NC(=O)[C@@H]2CSSC[C@H](NC1=O)C(=O)N[C@@H]([C@@H](C)O)C(=O)N[C@@H](CCCCN)C(=O)N[C@@H](CO)C(=O)N[C@@H](CC(=O)O)C(=O)N1CCC[C@H]1C(=O)N1CCC[C@H]1C(=O)N[C@@H]([C@@H](C)CC)C(=O)N2` [Ex. 43] (HELM PEPTIDE1{[Nle].C.T.K.S.D.P.P.I.C.D.[dP].P}$PEPTIDE1,PEPTIDE1,2:R3-10:R3|PEPTIDE1,PEPTIDE1,1:R1-13:R2$$$V2.0) and `CC[C@H](C)[C@@H]1NC(=O)[C@@H]2CCCN2C(=O)[C@@H]2CCCN2C(=O)[C@H](CC(=O)O)NC(=O)[C@H](CO)NC(=O)[C@H](CCCCN)NC(=O)[C@H]([C@@H](C)O)NC(=O)[C@@H]2CSSC[C@H](NC1=O)C(=O)N[C@@H](CC(=O)O)C(=O)N1CCC[C@@H]1C(=O)N1CCC[C@H]1C(=O)N[C@@H](CC1CCCCC1)C(=O)N2` [Ex. 35] (HELM PEPTIDE1{[Cha].C.T.K.S.D.P.P.I.C.D.[dP].P}$PEPTIDE1,PEPTIDE1,2:R3-10:R3|PEPTIDE1,PEPTIDE1,1:R1-13:R2$$$V2.0) are within 1.5-fold of each other in IC50: 77 nM for the first, 54 nM for the second.

`CC[C@H](C)[C@@H]1NC(=O)[C@@H]2CCCN2C(=O)[C@@H]2CCCN2C(=O)[C@H](CC(=O)O)NC(=O)[C@H](CO)NC(=O)[C@H](CCCCN)NC(=O)[C@H]([C@@H](C)O)NC(=O)[C@@H]2CSSC[C@H](NC1=O)C(=O)N[C@@H]([C@@H](C)O)C(=O)N1CCC[C@@H]1C(=O)N1CCC[C@H]1C(=O)N[C@@H](CC1CCCCC1)C(=O)N2` [Ex. 34] (HELM PEPTIDE1{[Cha].C.T.K.S.D.P.P.I.C.T.[dP].P}$PEPTIDE1,PEPTIDE1,2:R3-10:R3|PEPTIDE1,PEPTIDE1,1:R1-13:R2$$$V2.0) and `CC[C@H](C)[C@@H]1NC(=O)[C@@H]2CCCN2C(=O)[C@@H]2CCCN2C(=O)[C@H](CC(=O)O)NC(=O)[C@H](CO)NC(=O)[C@H](CCCCN)NC(=O)[C@H]([C@@H](C)O)NC(=O)[C@@H]2CSSC[C@H](NC1=O)C(=O)N[C@@H](CO)C(=O)N1CCC[C@@H]1C(=O)N1CCC[C@H]1C(=O)N[C@@H](Cc1c[nH]c3ccccc13)C(=O)N2` [Ex. 61] (HELM PEPTIDE1{W.C.T.K.S.D.P.P.I.C.S.[dP].P}$PEPTIDE1,PEPTIDE1,2:R3-10:R3|PEPTIDE1,PEPTIDE1,1:R1-13:R2$$$V2.0) are within 1.5-fold of each other in IC50: 56 nM for the first, 72 nM for the second.

For `CC[C@H](C)[C@@H]1NC(=O)[C@@H]2CCCN2C(=O)[C@@H]2CCCN2C(=O)[C@H](CC(=O)O)NC(=O)[C@H](CO)NC(=O)[C@H](CCCCN)NC(=O)[C@H]([C@@H](C)O)NC(=O)[C@@H]2CSSC[C@H](NC1=O)C(=O)N[C@@H](CO)C(=O)N[C@H]([C@H](C)O)C(=O)N1CCC[C@H]1C(=O)N[C@@H](Cc1ccccc1)C(=O)N2` [Ex. 72] (HELM PEPTIDE1{C.S.[dT].P.F.C.T.K.S.D.P.P.I}$PEPTIDE1,PEPTIDE1,1:R3-6:R3|PEPTIDE1,PEPTIDE1,1:R1-13:R2$$$V2.0), the IC50 was 87 nM.
